Laboratory results as given in patent US12441691B2 (Cytokinetics, Inc., priority 2020, dated 2025).

Test system: rabbit skeletal myofibrils (fast skeletal myofibrils)
Assay: Activation of fast skeletal myofibrils (PUMA assay, AC1.4)
Format: biochemical
Settings: calcium at pCa25, AC1.4 = concentration at which the compound increased the enzymatic activity
Method in brief: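 In 12 mM PIPES pH 6.8 with 2 mM MgCl2 and 1 mM DTT, Triton-washed rabbit skeletal myofibrils were run at the pCa25 calcium level. Myosin-made ADP was recycled through a PK/LDH coupled system; NADH loss read at 340 nm.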

| SMILES | AC1.4 |
| --- | --- |
| CC[C@H](C)[C@H]1C(=O)Nc2ccccc2CN1C(=O)N[C@@H]1CCNC1 [Compound 307, (S)-3-((S)-sec-butyl)-2-oxo-N-((R)-pyrrolidin-3-yl)-1,2,3,5-tetrahydro-4H-benzo[e][1,4]diazepine-4-carboxamide] | 0.52 µM |
| CC[C@H](C)[C@H]1C(=O)Nc2ccccc2CN1C(=O)N[C@H]1CCNC1 [Compound 308, (S)-3-((S)-sec-butyl)-2-oxo-N-((S)-pyrrolidin-3-yl)-1,2,3,5-tetrahydro-4H-benzo[e][1,4]diazepine-4-carboxamide] | 0.32 µM |
| COCCN1Cc2ccccc2NC(=O)[C@@H]1C1CCCCCC1 [Compound 309, (S)-3-cycloheptyl-4-(2-methoxyethyl)-1,3,4,5-tetrahydro-2H-benzo[e][1,4]diazepin-2-one] | 0.59 µM |
| CC[C@H](C)[C@H]1C(=O)Nc2ccccc2CN1CCOC [Compound 310, (S)-3-((S)-sec-butyl)-4-(2-methoxyethyl)-1,3,4,5-tetrahydro-2H-benzo[e][1,4]diazepin-2-one] | 4.17 µM |
| CC[C@H](C)[C@H]1C(=O)Nc2ccccc2CN1CC(=O)NC [Compound 311, 2-((S)-3-((S)-sec-butyl)-2-oxo-1,2,3,4-tetrahydro-4H-benzo[e][1,4]diazepin-4-yl)-N-methylacetamide] | 2.60 µM |
| CC[C@H](C)[C@H]1C(=O)Nc2ccccc2CN1CCC(N)=O [Compound 312, 3-((S)-3-((S)-sec-butyl)-2-oxo-1,2,3,5-tetrahydro-4H-benzo[e][1,4]diazepin-4-yl)propanamide] | 1.22 µM |
| CC[C@H](C)[C@H]1C(=O)Nc2ccccc2CN1CCC(=O)N(C)C [Compound 313, 3-((S)-3-((S)-sec-butyl)-2-oxo-1,2,3,5-tetrahydro-4H-benzo[e][1,4]diazepin-4-yl)-N,N-dimethylpropanamide] | 1.22 µM |
| CC[C@H](C)[C@H]1C(=O)Nc2ccccc2CN1CCC(=O)NC [Compound 314, 3-((S)-3-((S)-sec-butyl)-2-oxo-1,2,3,5-tetrahydro-4H-benzo[e][1,4]diazepin-4-yl)-N-methylpropanamide] | 0.72 µM |
| CC[C@H](C)[C@H]1C(=O)Nc2ccccc2CN1CC1CCCC1 [Compound 315, (S)-3-((S)-sec-butyl)-4-(cyclopentylmethyl)-1,3,4,5-tetrahydro-2H-benzo[e][1,4]diazepin-2-one] | 0.65 µM |
| CC[C@H](C)[C@H]1C(=O)Nc2ccccc2CN1CC#N [Compound 316, 2-((S)-3-((S)-sec-butyl)-2-oxo-1,2,3,5-tetrahydro-4H-benzo[e][1,4]diazepin-4-yl)acetonitrile] | 1.07 µM |
| CC[C@H](C)[C@H]1C(=O)Nc2ccccc2C(CO)N1C(N)=O (stereo partly drawn) [Compound 317, (3S)-3-((S)-sec-butyl)-5-(hydroxymethyl)-2-oxo-1,2,3,5-tetrahydro-4H-benzo[e][1,4]diazepine-4-carboxamide] | 1.30 µM |
| CC[C@H](C)[C@H]1C(=O)Nc2ccccc2C2COC(=O)N21 (stereo partly drawn) [Compound 318, (5S)-5-((S)-sec-Butyl)-7,11b-dihydro-1H,3H-benzo[f]oxazolo[3,4-d][1,4]diazepine-3,6(5H)-dione] | 0.19 µM |
| CC[C@H](C)[C@H]1C(=O)Nc2ccccc2[C@@H](C)N1C(=O)c1cnn(C)c1 [Compound 319, (3S,5R)-3-((S)-sec-butyl)-5-methyl-4-(1-methyl-1H-pyrazole-4-carbonyl)-1,3,4,5-tetrahydro-2H-benzo[e][1,4]diazepin-2-one] | 0.80 µM |
| CC[C@H](C)[C@H]1C(=O)Nc2ccccc2[C@@H](C)N1C(N)=O [Compound 320, (3S,5R)-3-((S)-sec-butyl)-5-methyl-2-oxo-1,2,3,5-tetrahydro-4H-benzo[e][1,4]diazepine-4-carboxamide] | 1.25 µM |
| CC(C)[C@H]1C(=O)Nc2ccccc2CN1C(=O)c1ccn(C)n1 [Compound 322, (S)-3-isopropyl-4-(1-methyl-1H-pyrazole-3-carbonyl)-1,3,4,5-tetrahydro-2H-benzo[e][1,4]diazepin-2-one] | 1.15 µM |
| CC(C)[C@H]1C(=O)Nc2ccccc2CN1c1nccs1 [Compound 323, (S)-3-isopropyl-4-(thiazol-2-yl)-1,3,4,5-tetrahydro-2H-benzo[e][1,4]diazepin-2-one] | 0.66 µM |
| Cc1nsc(N2Cc3ccccc3NC(=O)[C@@H]2C(C)C)n1 [Compound 324, (S)-3-isopropyl-4-(3-methyl-1,2,4-thiadiazol-5-yl)-1,3,4,5-tetrahydro-2H-benzo[e][1,4]diazepin-2-one] | 1.16 µM |
| CC(C)[C@H]1C(=O)Nc2ccccc2CN1C(=O)N(C)C [Compound 325, (S)-3-isopropyl-N,N-dimethyl-2-oxo-1,2,3,5-tetrahydro-4H-benzo[e][1,4]diazepine-4-carboxamide] | 1.81 µM |

| SMILES | AC1.4 |
| --- | --- |
| CC(=O)N1Cc2ccccc2NC(=O)[C@@H]1C(C)C [Compound 326, (S)-4-acetyl-3-isopropyl-1,3,4,5-tetrahydro-2H-benzo[e][1,4]diazepin-2-one] | 4.38 µM |
| CC(C)[C@H]1C(=O)Nc2ccccc2CN1C(=O)c1cc[nH]c(=O)c1 [Compound 327, (S)-3-isopropyl-4-(2-oxo-1,2-dihydropyridine-4-carbonyl)-1,3,4,5-tetrahydro-2H-benzo[e][1,4]diazepin-2-one] | 1.50 µM |
| CC(C)[C@H]1C(=O)Nc2ccccc2CN1C(=O)c1cnn(CCO)c1 [Compound 328, (S)-4-(1-(2-hydroxyethyl)-1H-pyrazole-4-carbonyl)-3-isopropyl-1,3,4,5-tetrahydro-2H-benzo[e][1,4]diazepin-2-one] | 2.56 µM |
| CC(C)[C@H]1C(=O)Nc2ccccc2CN1C(=O)c1ccc(C(N)=O)[nH]1 [Compound 329, (S)-5-(3-isopropyl-2-oxo-2,3,4,5-tetrahydro-1H-benzo[e][1,4]diazepine-4-carbonyl)-1H-pyrrole-2-carboxamide] | 0.20 µM |
| COCCn1cc(C(=O)N2Cc3ccccc3NC(=O)[C@@H]2C(C)C)cn1 [Compound 330, (S)-3-isopropyl-4-(1-(2-methoxyethyl)-1H-pyrazole-4-carbonyl)-1,3,4,5-tetrahydro-2H-benzo[e][1,4]diazepin-2-one] | 1.71 µM |
| CC(C)[C@H]1C(=O)Nc2ccccc2CN1C(=O)c1cn[nH]c1 [Compound 331, (S)-3-isopropyl-4-(1H-pyrazole-4-carbonyl)-1,3,4,5-tetrahydro-2H-benzo[e][1,4]diazepin-2-one] | 1.03 µM |
| CC(C)[C@H]1C(=O)Nc2ccccc2CN1C(=O)N1CC(O)C1 [Compound 332, (S)-4-(3-hydroxyazetidine-1-carbonyl)-3-isopropyl-1,3,4,5-tetrahydro-2H-benzo[e][1,4]diazepin-2-one] | 2.37 µM |
| CC(C)[C@H]1C(=O)Nc2ccccc2CN1S(=O)(=O)N(C)C [Compound 333, (S)-3-isopropyl-N,N-dimethyl-2-oxo-1,2,3,5-tetrahydro-4H-benzo[e][1,4]diazepine-4-sulfonamide] | 2.44 µM |
| CC(C)[C@H]1C(=O)Nc2ccccc2CN1c1c(N)c(=O)c1=O [Compound 334, (S)-3-amino-4-(3-isopropyl-2-oxo-1,2,3,5-tetrahydro-4H-benzo[e][1,4]diazepin-4-yl)cyclobut-3-ene-1,2-dione] | 0.65 µM |
| CNC(=O)N1Cc2ccccc2NC(=O)[C@@H]1C(C)C [Compound 335, (S)-3-isopropyl-N-methyl-2-oxo-1,2,3,5-tetrahydro-4H-benzo[e][1,4]diazepine-4-carboxamide] | 3.75 µM |
| CC[C@H](C)[C@H]1C(=O)Nc2cccc(F)c2CN1/C(N)=N\C#N [Compound 336, (S,Z)-3-((S)-sec-butyl)-N′-cyano-6-fluoro-2-oxo-1,2,3,5-tetrahydro-4H-benzo[e][1,4]diazepine-4-carboximidamide] | 0.12 µM |
| CC[C@H](C)[C@H]1C(=O)Nc2cccc(F)c2CN1C(=O)N1CC(O)C1 [Compound 337, (S)-3-((S)-sec-butyl)-6-fluoro-4-(3-hydroxyazetidine-1-carbonyl)-1,3,4,5-tetrahydro-2H-benzo[e][1,4]diazepin-2-one] | 0.72 µM |
| CC[C@H](C)[C@H]1C(=O)Nc2cccc(F)c2CN1C(=O)NC [Compound 338, (S)-3-((S)-sec-butyl)-6-fluoro-N-methyl-2-oxo-1,2,3,5-tetrahydro-4H-benzo[e][1,4]diazepine-4-carboxamide] | 0.69 µM |
| CC[C@H](C)[C@H]1C(=O)Nc2cccc(F)c2CN1C(=O)CCO [Compound 339, (S)-3-((S)-sec-butyl)-6-fluoro-4-(3-hydroxypropanoyl)-1,3,4,5-tetrahydro-2H-benzo[e][1,4]diazepin-2-one] | 2.79 µM |
| CC[C@H](C)[C@H]1C(=O)Nc2cccc(F)c2CN1C(=O)N1CC[C@H](O)C1 [Compound 340, (S)-3-((S)-sec-butyl)-6-fluoro-4-((S)-3-hydroxypyrrolidine-1-carbonyl)-1,3,4,5-tetrahydro-2H-benzo[e][1,4]diazepin-2-one] | 3.00 µM |
| CC[C@H](C)[C@H]1C(=O)Nc2ccc(F)cc2CN1C(=O)CO [Compound 341, (S)-3-((S)-sec-butyl)-7-fluoro-4-(2-hydroxyacetyl)-1,3,4,5-tetrahydro-2H-benzo[e][1,4]diazepin-2-one] | 2.37 µM |
| CC[C@H](C)[C@H]1C(=O)Nc2ccc(F)cc2CN1C(=O)c1cn[nH]c1 [Compound 342, (S)-3-((S)-sec-butyl)-7-fluoro-4-(1H-pyrazole-4-carbonyl)-1,3,4,5-tetrahydro-2H-benzo[e][1,4]diazepin-2-one] | 0.27 µM |
| CC[C@H](C)[C@H]1C(=O)Nc2ccc(F)cc2CN1C(=O)c1ncn[nH]1 [Compound 343, (S)-3-((S)-sec-butyl)-7-fluoro-4-(1H-1,2,4-triazole-5-carbonyl)-1,3,4,5-tetrahydro-2H-benzo[e][1,4]diazepin-2-one] | 0.25 µM |
